Results on five compounds are retold here after patent US9974782B2, “Phosphodiesterase inhibitors and uses thereof” (THE TRUSTEES OF COLUMBIA UNIVERSITY IN THE CITY OF NEW YORK, priority 2008, dated 2018).

One series has as its system PDE3. As to conditions: cited from earlier work.
A further series deals with PDE5 (Homo sapiens, UniProt O76074). As to conditions: cited from earlier work.
The subject of the next series is PDE4. Particulars: cited from earlier work.
The next series concerns the target PDE2 (Homo sapiens, UniProt O00408). Particulars: cited from earlier work.
The test system of series [1] is isolated rabbit corpus cavernosum. Particulars: read-out: EC50, relaxant effect; cited from earlier work.
The subject of the next series is PDE1. Particulars: cited from earlier work.
In the next series the test system is PDE6. Particulars: cited from earlier work.
The conditions of series [2]: rat, in vivo; cited from earlier work.
Series [3] has as its system human Aβ40 and Aβ42 levels. As to conditions: rolipram, earlier study; cited from earlier work.
The subject of series [4] is CA1 region of hippocampal slices from APP/PS1 and WT mice. The series is described as follows: Electrophysiological analysis (BST, LTP) of hippocampal slices perfused with inhibitor. Format: cell-based, mouse.
The conditions of series [5]: in vivo, cited from earlier work.
In series [6] the test system is APP/PS1 mice. The series is described as follows: Contextual and cued fear conditioning. It counts as in vivo, mouse. Particulars: for effect on contextual fear memory in words: APP/PS1 (transgenic) mice. As to the method:
Given that sildenafil reversed LTP deficits in 3-month-old APP/PS1, it was then tested whether the inhibitor reversed the cognitive defects in these animals. As reported above sildenafil offers the advantage of crossing the BBB and therefore it can be easily utilized in behavioural experiments. Three-month-old mice were divided into 4 groups: APP/PS1 with sildenafil, APP/PS1 with vehicle, WT with sildenafil and WT with vehicle. Sildenafil and vehicle control solutions were administered i.p. at a concentration of 3 mg/kg. This concentration was chosen based on previous studies showing that these amounts of sildenafil raise hippocampal cGMP levels and improve memory in aged rats^A6 and mice^A7 independent of vascular effects^A6. The effects of acute administration of sildenafil was first examined on fear-conditioning learning, a type of learning that is impaired in several AD mouse models^A14 and depends on hippocampus and amygdala. The hippocampus is indispensable for contextual fear conditioning^A15, a form of associative learning in which mice must associate a neutral stimulus with an aversive one. Mice were trained to associate neutral stimuli with an aversive one. They were placed in a new context (fear conditioning box), exposed to a white noise cue (CS) paired with a mild foot shock (US), and injected with sildenafil immediately after the training. Fear learning was assessed twenty-four hours later by measuring freezing behaviour—the absence of all movement except for that necessitated by breathing—in response to representation of the context or of the auditory cue within a completely different context. No difference was found in the freezing behaviour among the four groups of mice before the training phase (FIG. 2A). Twenty-four hours later, a decrease in the freezing behaviour of vehicle-treated APP/PS1 mice compared with that of vehicle-treated WT littermates in the analysis of the contextual learning was observed (FIG. 2A). […] Fear conditioning, a hippocampus-independent task A^15, was next tested and no difference in freezing among the 4 groups was found, as APP/PS1 mice are known to have a selective hippocampus-dependent impairment in associative learning^A14.
Sildenafil was tested to determine whether a brief course of treatment can provide long term benefits. The PDE5 inhibitor was examined to see if it maintains its protective effect against synaptic dysfunction and memory loss. In these experiments, both APP/PS1 and WT mice of 3 months of age were injected intraperitoneally with 3 mg/kg/day sildenafil for 3 weeks, then the treatment was stopped for 9-12 weeks prior to testing. The mice were next subjected to training for contextual learning. […] There were no differences between the 4 groups in the cued conditioning test.
Three-month-old APP/PS1 and WT mice were separated into 4 groups: APP/PS1 mice treated with vehicle, APP/PS1 mice treated with PDE inhibitor, WT mice treated with vehicle, and WT mice treated with PDE inhibitor. […] In the remaining experiments, sildenafil was injected via i.p. The drug was administered either acutely or for 1 course of 3 week treatment. For assessment of the short-term effects of sildenafil, the drug was given at a concentration of 3 mg/kg immediately after the training. This dose yields concentrations of ˜2.5 μM cGMP in the hippocampus^A53. For assessment of long-term effects, sildenafil was given daily by i.p. injection at a concentration of 3 mg/kg for 3 weeks and then treatment was stopped for 9-12 weeks prior to behavioral testing. Contextual and cued fear conditioning was performed for 3 days. Radial-arm water-maze (RAWM) was performed for 3 weeks. Then, the animals were sacrificed for electrophysiological recordings. To decide the time of administration of sildenafil in the acute experiments, a series of studies was performed in which the inhibitor was injected i.p. at 5 min before the electric shock or at 5 min before the first acquisition trial with the radial arm water maze. […]

The subject of series [7] is APP/PS1 mice. The series is described as follows: Radial-arm water maze (spatial working memory). Format: in vivo, mouse. As to conditions: APP/PS1 (transgenic) mice. The source says:
Next, the effect of treatment with sildenafil was examined on spatial working memory, a type of short-term memory that can be studied with the radial-arm water maze test. […] Mice were required to learn and memorize the location of a hidden platform in one of the arms of a maze with respect to spatial cues. […] However, daily injections of sildenafil for 3 weeks immediately after the 4th acquisition trial ameliorated the behavioural performance of APP/PS1 mice (FIG. 2B).
The effects of one course of 3-week treatment with sildenafil on spatial working memory were next tested using the radial-arm water-maze task. There was a difference between the number of errors made by vehicle-treated APP/PS1 and WT mice (FIG. 3B)^A12. Administration of sildenafil for 3 weeks, 9-12 weeks prior to the testing, reduced the gap between the two groups without affecting performance of the WT animals (FIG. 3B).
Three-month-old APP/PS1 and WT mice were separated into 4 groups: APP/PS1 mice treated with vehicle, APP/PS1 mice treated with PDE inhibitor, WT mice treated with vehicle, and WT mice treated with PDE inhibitor. […] In the remaining experiments, sildenafil was injected via i.p. The drug was administered either acutely or for 1 course of 3 week treatment. For assessment of the short-term effects of sildenafil, the drug was given at a concentration of 3 mg/kg immediately after the training. This dose yields concentrations of ˜2.5 μM cGMP in the hippocampus^A53. For assessment of long-term effects, sildenafil was given daily by i.p. injection at a concentration of 3 mg/kg for 3 weeks and then treatment was stopped for 9-12 weeks prior to behavioral testing. Contextual and cued fear conditioning was performed for 3 days. Radial-arm water-maze (RAWM) was performed for 3 weeks. Then, the animals were sacrificed for electrophysiological recordings. To decide the time of administration of sildenafil in the acute experiments, a series of studies was performed in which the inhibitor was injected i.p. at 5 min before the electric shock or at 5 min before the first acquisition trial with the radial arm water maze. […] Thus, all the behavioral experiments on the acute effects of sildenafil reported in the result section were performed with injection after the training.
This is a type of short-term memory that can be studied with the RAWM test^12. Briefly, the RAWM consisted of a white tank (120 cm diameter) filled with water (24-25° C.) and made opaque by the addition of non-toxic white paint. Within the tank walls were positioned so as to produce six arms, radiating from a central area. Spatial cues were presented on the walls of the testing room. At the end of one of the arms was positioned a clear 10 cm submerged (1.5 cm) platform that remained in the same location for every trial in one day, but was moved about randomly from day to day. On each trial the mouse started the task from a different randomly chosen arm. […] Each trial lasted 1 min and errors were counted each time the mouse entered the wrong arm or needed more than 20 sec to reach the platform. After each error the mouse was pulled back to the start arm for that trial. After 4 consecutive acquisition trials, the mouse was placed in its home cage for 30 min, then returned to the maze and administered a 5th retention trial. Testing was considered completed as the WT mice made the same number of errors at the 4th and 5th trial. The scores for each mouse on the last three days of testing were averaged and used for statistical analysis.

Setting [8] is: WT slices, 120 min after tetanus, sildenafil 50 nM, tadalafil 50 nM, IC354 1 μM.
[9] abbreviates: WT slices, sildenafil or tadalafil 50 nM.
Setting [10] is: slices of 3-month-old APP/PS1 mice, 120 min after tetanus, 10 min perfusion (sildenafil 50 nM, tadalafil 50 nM, IC354 1 μM).
The mark [11] stands for this setting: 3 month-old WT, sildenafil 3 mg/Kg or tadalafil 1 mg/Kg i.p.

A word on the IC50: it is the point on the concentration scale where inhibition reaches its midpoint. The EC50 is the concentration needed to bring the measured effect to its halfway point.

Entries after “also recorded” stand apart in the source; their conditions may differ. Like-named read-outs stand apart in the source and are kept apart here.

Sequence of PDE2 (O00408 whole entry): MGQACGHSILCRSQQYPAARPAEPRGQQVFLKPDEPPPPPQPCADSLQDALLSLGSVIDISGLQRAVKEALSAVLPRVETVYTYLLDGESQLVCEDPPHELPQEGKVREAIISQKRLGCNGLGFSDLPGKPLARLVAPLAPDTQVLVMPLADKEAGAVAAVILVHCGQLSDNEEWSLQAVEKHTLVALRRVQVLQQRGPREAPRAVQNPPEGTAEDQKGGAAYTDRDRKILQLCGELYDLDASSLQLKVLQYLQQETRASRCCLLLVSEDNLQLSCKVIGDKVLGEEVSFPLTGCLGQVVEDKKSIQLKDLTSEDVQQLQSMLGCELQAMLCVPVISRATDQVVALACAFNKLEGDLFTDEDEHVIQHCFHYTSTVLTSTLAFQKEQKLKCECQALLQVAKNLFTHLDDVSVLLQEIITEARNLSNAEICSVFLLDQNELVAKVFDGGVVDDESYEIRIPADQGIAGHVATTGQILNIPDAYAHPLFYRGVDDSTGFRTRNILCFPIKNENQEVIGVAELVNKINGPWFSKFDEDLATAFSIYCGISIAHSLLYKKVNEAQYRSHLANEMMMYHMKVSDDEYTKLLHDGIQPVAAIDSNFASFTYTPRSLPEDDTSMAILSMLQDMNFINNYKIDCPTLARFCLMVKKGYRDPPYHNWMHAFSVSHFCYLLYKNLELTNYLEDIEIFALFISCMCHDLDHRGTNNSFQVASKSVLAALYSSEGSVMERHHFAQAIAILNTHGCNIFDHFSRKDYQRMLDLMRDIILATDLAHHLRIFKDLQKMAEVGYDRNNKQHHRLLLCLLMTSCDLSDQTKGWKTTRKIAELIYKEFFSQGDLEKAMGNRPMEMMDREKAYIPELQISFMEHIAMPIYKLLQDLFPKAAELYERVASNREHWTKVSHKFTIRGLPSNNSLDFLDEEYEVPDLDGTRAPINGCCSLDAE

Turning to `COC(=O)c1c(-c2cc(OC)c(OC)c(OC)c2)c2ccc(OCc3ccccn3)cc2c(=O)n1-c1ccc(N)cc1.O=S(=O)(O)O` [T1032], in the series on PDE3, the PDE3/PDE5 is > 10 000. In addition, at PDE5 (read-out: IC50 against PDE5), the IC50 is less than 1 nM. Also, the PDE4/PDE5 with PDE4 was 4700. For the same compound, the PDE2/PDE5 on PDE2 is recorded as > 10 000. Also, the EC50 in series [1] was 7.9 nM. In the series on PDE1, the “selectivity ratio for PDE1 (PDE1/PDE5)” value is recorded as 1300. Further, the “selectivity ratio for PDE6 (PDE6/PDE5)” value in the series with PDE6 is 28.
As for `CCOC(=O)c1cc2c(cn1)[nH]c1ccccc12` [beta-CCE, Ethyl beta-carboline-3-carboxylate], the “PDE5 inhibition in words” value at PDE5 was “weak, non-selective PDE5 inhibitor”.
Consider `Cc1cc(-c2ccccc2)nnc1NCCN1CCOCC1` [minaprine], for which the brain/blood ratio in series [2] is more than 2.
As to `COc1ccc(C2CNC(=O)C2)cc1OC1CCCC1` (stereo not drawn) [rolipram], in [3], the “effect on Aβ in brains of APP/PS1 mice in words” value was “did not affect Aβ concentration; also recorded: did not affect Aβ load”.
As to `CN1CC(=O)N2C(Cc3c([nH]c4ccccc34)C2c2ccc3c(c2)OCO3)C1=O` (stereo not drawn) [tadalafil, 6-benzo[1,3]dioxol-5-yl-2-methyl-2,3,6,7,12,12a-hexahydro-pyrazino[1′,2′:1,6]pyrido[3,4-b]indole-1,4-dione], the “LTP, fEPSP slope as % of baseline” value in series [4] (setting [8]) worked out at 232.45±21.92%; in series [4] (setting [10]) it was 209.49±13.89%. The “level of LTP as % of vehicle-treated WT slices” value in [4] (setting [8]) is approximately 106%. Further, the “basal synaptic responses without tetanus as % of vehicle-treated WT slices” value in [4] (setting [9]) is on record as approximately 98%. The “basal synaptic responses without tetanus, fEPSP % of baseline” value in series [4] (setting [9]) is recorded as 103.65±1.63%. The “effect on LTP impairment in words” value in series [4] (slices from APP/PS1 (transgenic) mice, 10 min prior to tetanus) was “reverses LTP impairment”. Besides, in series [4] (setting [10]), the “level of LTP as % of vehicle-treated WT littermates” value is reported as approximately 96%. Further, the figures for the “ability to cross the BBB in words” value in series [5] and in series [5] (listed as Tadalafil) were “unlikely to cross it; also recorded: does not cross it” and “does not cross it”, respectively. For the same compound, the contextual freezing time is reported as 18.76±3.89% in the series on APP/PS1 mice [6] (3 month-old APP/PS1, sildenafil 3 mg/Kg or tadalafil 1 mg/Kg i.p., 24 hrs after training) and 28.29±3.30% in the series on APP/PS1 mice [6] (setting [11]). Moreover, the “contextual freezing time as % of vehicle-treated APP/PS1 mice” value with APP/PS1 mice [6] (3 month-old APP/PS1, tadalafil 1 mg/Kg i.p.) is approximately 122%. Also, the “contextual freezing as % of vehicle-treated WT mice” value with APP/PS1 mice [6] (setting [11]) is approximately 85%. Moreover, the “effect on contextual fear memory in words” value was “does not modify contextual fear conditioning” with APP/PS1 mice [6] and “did not improve associative learning” in the series with APP/PS1 mice [6] (listed as Tadalafil). Also, the figures for the “effect on spatial working memory (RAWM) in words” value in the series with APP/PS1 mice [7] and in the series on APP/PS1 mice [7] (listed as Tadalafil) were “does not improve spatial working memory” and “did not improve”, respectively.
